Columns and labels:
Type in all cases: protein assay
Opioid receptor [1] = molecular target: T1, Opioid receptor (Rattus norvegicus, UniProt P33533+P34975+P33535); assay: Compound was tested for its ability to displace [3H]naloxone from Opioid receptors in presence of NaCl (100 mM)
Opioid receptor [2] = molecular target: T1, Opioid receptor; assay: Compound was tested for its ability to displace [3H]naloxone from Opioid receptors in absence of NaCl
Opioid receptor [3] = molecular target: T1, Opioid receptor; assay: Compound was tested for its ability to displace [3H]- naloxone] from Opioid receptors in absence of NaCl
Opioid receptor [4] = molecular target: T1, Opioid receptor; assay: Compound was tested for its ability to displace [3H]- naloxone] from Opioid receptors in presence of NaCl (100 mM)

Structure (SMILES)	IC50 (Opioid receptor [1]) [nM]	IC50 (Opioid receptor [2]) [nM]	IC50 (Opioid receptor [3]) [nM]	IC50 (Opioid receptor [4]) [nM]
CCC1C2Cc3ccc(O)cc3C1(CC)CCN2C(=O)C(N)Cc1ccccc1.Cl (stereo in doubt; 2d)	3350	1540	–	–
CCC1C2Cc3ccc(O)cc3C1(CC)CCN2C(=O)CN.Cl (centres undefined)	8184	287	–	–
CCC1C2Cc3ccc(O)cc3C1(CC)CCN2C(=O)C(N)CCCN=C(N)N.Cl (centres undefined)	660	15.5	–	–
CCC1C2Cc3ccc(O)cc3C1(CC)CCN2C(=O)C(N)Cc1ccccc1.Cl (stereo in doubt; 2e)	> 10000	> 10000	–	–
CC[C@H]1[C@H]2Cc3ccc(O)cc3[C@]1(CC)CCN2	–	–	20	360
CCC1C2Cc3ccc(O)cc3C1(CC)CCN2C(=O)C(N)CC(C)C (centres undefined)	6384	1503	–	–
CCC1C2Cc3ccc(O)cc3C1(CC)CCN2C(=O)C(N)CCSC.Cl (centres undefined)	5586	301	–	–
